Legend:
Assay type in all cases: in vivo
Digitaria [1] = assay: Microscreen, post-emergence herbicidal action (Example B3); details: 250 g/ha, evaluated after 9 or 13 days, scale of eleven ratings (10=total damage, 0=no action)
Protocol: (§1) Example B3 Microscreen, Post-Emergence Herbicidal Action Monocotyledonous and dicotyledonous test plants are sown in sterilised standard soil in seed trays each having 96 cells. After 8 to 9 days' cultivation under controlled conditions in a climatic chamber (cultivation at 17/23° C.; 13 hours' light; 50-60% humidity; after application at 19/24° C.), the plants are treated with an aqueous spray solution of 1000 mg/l of the active ingredient used ([…]; incl. 10% DMSO as solvent). The plants are grown on in the climatic chamber until the test is evaluated after 9 or 13 days. The test is evaluated in accordance with a scale of eleven ratings (10=total damage, 0=no action). Ratings of from 10 to 7 (especially from 10 to 8) indicate very good to good herbicidal action.

Stellaria [2] = assay: as above; details: 250 g/ha, evaluated after 9 or 13 days, scale of eleven ratings (10=total damage, 0=no action)
Protocol: as §1

Nasturtium = assay: as above; details: 250 g/ha, evaluated after 9 or 13 days, scale of eleven ratings (10=total damage, 0=no action)
Protocol: (§2) Example B3 Microscreen, Post-Emergence Herbicidal Action Monocotyledonous and dicotyledonous test plants are sown in sterilised standard soil in seed trays each having 96 cells. […] The plants are grown on in the climatic chamber until the test is evaluated after 9 or 13 days. The test is evaluated in accordance with a scale of eleven ratings (10=total damage, 0=no action). Ratings of from 10 to 7 (especially from 10 to 8) indicate very good to good herbicidal action.

Amaranthus [3] = assay: as above; details: 250 g/ha, evaluated after 9 or 13 days, scale of eleven ratings (10=total damage, 0=no action)
Protocol: as §2

Solanum = assay: as above; details: 250 g/ha, evaluated after 9 or 13 days, scale of eleven ratings (10=total damage, 0=no action)
Protocol: as §2

Echinochloa [4] = assay: Pre-emergence herbicidal action (Example B1); details: 250 g/ha, after 4 weeks, rating scale 10=total damage, 0=no action
Protocol: (§3) Monocotyledonous and dicotyledonous test plants are sown in standard soil in pots or seed trays. Immediately after sowing, the test compounds, in the form of an aqueous suspension (prepared from a wettable powder (Example F3, b) according to WO 97/34485) or in the form of an emulsion (prepared from an emulsifiable concentrate (Example F1, c) according to WO 97/34485), are applied by spraying in a concentration of 250 g/ha. The test plants are then grown in a greenhouse under optimum conditions. After a test duration of 4 weeks, the test is evaluated in accordance with a scale of eleven ratings (10=total damage, 0=no action). Ratings of from 10 to 7 (especially from 10 to 8) indicate very good to good herbicidal action.

Abutilon = assay: Pre-emergence herbicidal action (Example B1); details: 250 g/ha, after 4 weeks, rating scale 10=total damage, 0=no action
Protocol: as §3

Amaranthus [5] = assay: Pre-emergence herbicidal action (Example B1); details: 250 g/ha, after 4 weeks, rating scale 10=total damage, 0=no action
Protocol: as §3

Panicum [6] = assay: Pre-emergence herbicidal action (Example B1); details: 250 g/ha, after 4 weeks, rating scale 10=total damage, 0=no action
Protocol: as §3

Digitaria [7] = assay: Pre-emergence herbicidal action (Example B1); details: 250 g/ha, after 4 weeks, rating scale 10=total damage, 0=no action
Protocol: as §3

Chenopodium [8] = assay: Pre-emergence herbicidal action (Example B1); details: 250 g/ha, after 4 weeks, rating scale 10=total damage, 0=no action
Protocol: as §3

Xanthium = assay: Post-emergence herbicidal action (Example B2); details: 250 g/ha, after about 18 days, rating scale 10=total damage, 0=no action
Excerpt: (§4) Monocotyledonous and dicotyledonous test plants are cultivated in a greenhouse in standard soil in plastic pots and, at the 4- to 6-leaf stage, are sprayed with an aqueous suspension of the test compounds of formula I prepared from a 25% wettable powder (Example F3, b) according to WO 97/34485) or with an emulsion of the test compounds of formula I prepared from a 25% emulsifiable concentrate (Example F1, c) according to WO 97/34485), corresponding to concentrations of 125 and 250 g of active ingredient per hectare (500 litres of water per ha). The test plants are then grown on in the greenhouse under optimum conditions. After a test duration of about 18 days, the test is evaluated in accordance with a scale of eleven ratings (10=total damage, 0=no action). Ratings of from 10 to 7 (especially from 10 to 8) indicate very good to good herbicidal action.

Echinochloa [9] = assay: Post-emergence herbicidal action (Example B2); details: 250 g/ha, after about 18 days, rating scale 10=total damage, 0=no action
Excerpt: as §4

Euphorbia = assay: Post-emergence herbicidal action (Example B2); details: 250 g/ha, after about 18 days, rating scale 10=total damage, 0=no action
Excerpt: as §4

Amaranthus [10] = assay: Post-emergence herbicidal action (Example B2); details: 250 g/ha, after about 18 days, rating scale 10=total damage, 0=no action
Excerpt: as §4

Panicum [11] = assay: Post-emergence herbicidal action (Example B2); details: 250 g/ha, after about 18 days, rating scale 10=total damage, 0=no action
Excerpt: as §4

Stellaria [12] = assay: Post-emergence herbicidal action (Example B2); details: 250 g/ha, after about 18 days, rating scale 10=total damage, 0=no action
Excerpt: as §4

Chenopodium [13] = assay: Post-emergence herbicidal action (Example B2); details: 250 g/ha, after about 18 days, rating scale 10=total damage, 0=no action
Excerpt: as §4

| SMILES | Digitaria, herbicidal action rating (Digitaria [1]) | Stellaria, herbicidal action rating (Stellaria [2]) | Nasturtium, herbicidal action rating (Nasturtium) | Amaranthus, herbicidal action rating (Amaranthus [3]) | Solanum, herbicidal action rating (Solanum) | other results |
| --- | --- | --- | --- | --- | --- | --- |
| CCN(CC)c1nc(C(=O)C2=C(O)CCCC2=O)ccc1C(F)(F)F [Compound 1.060] | 4 | 7 | 9 | 8 | 8 |  |
| O=C1CCCC(O)=C1C(=O)c1ccc(C(F)(F)F)c(N2CCOCC2)n1 [Compound 1.073] |  |  |  |  |  | Pre-emergence action: Echinochloa (Echinochloa [4]): 10; Pre-emergence action: Abutilon (Abutilon): 10; Pre-emergence action: Amaranthus (Amaranthus [5]): 6; Pre-emergence action: Panicum (Panicum [6]): 10; Pre-emergence action: Digitaria (Digitaria [7]): 10; Pre-emergence action: Chenopodium (Chenopodium [8]): 10; Post-emergence action: Xanthium (Xanthium): 9; Post-emergence action: Echinochloa (Echinochloa [9]): 9; Post-emergence action: Euphorbia (Euphorbia): 9; Post-emergence action: Amaranthus (Amaranthus [10]): 10; Post-emergence action: Panicum (Panicum [11]): 10; Post-emergence action: Stellaria (Stellaria [12]): 9; Post-emergence action: Chenopodium (Chenopodium [13]): 8 |
| O=C1CCCC(O)=C1C(=O)c1ccc(C(F)(F)F)c(-n2cccn2)n1 [Compound 1.080] | 5 | 9 | 10 | 7 | 9 |  |
| O=C1CCCC(O)=C1C(=O)c1ccc(C(F)(F)F)c(-n2cncn2)n1 [Compound 1.082] | 3 | 10 | 10 | 6 | 9 |  |
| CN(C(=O)c1ccccc1)c1nc(C(=O)C2=C(O)CCCC2=O)ccc1C(F)(F)F [Compound 1.091] | 2 | 6 | 9 | 8 | 9 |  |
| O=C1CCCC(O)=C1C(=O)c1ccc(OCC(F)(F)F)c(N2CCOCC2)n1 [Compound 1.094] | 8 | 7 | 8 | 9 | 10 |  |
| CC1(c2nc(C(=O)C3=C(O)CCCC3=O)ccc2C(F)(F)F)OCCO1 [Compound 1.192] | 7 | 9 | 10 | 8 | 9 |  |
| Cc1cc(-c2nc(C(=O)C3=C(O)CCCC3=O)ccc2C(F)(F)F)on1 [Compound 1.204] | 8 | 10 | 10 | 10 | 10 |  |
| O=C1CCCC(O)=C1C(=O)c1ccc(C(F)(F)F)c(-c2ccc(C(F)(F)F)cc2)n1 [Compound 1.209] | 8 | 9 | 9 | 9 | 9 |  |
| Cc1nc(C(=O)C2=C(O)CCCC2=O)ccc1C(F)(F)F [Compound 1.211] | 5 | 8 | 10 | 8 | 8 |  |
| N#Cc1nc(C(=O)C2=C(O)CCCC2=O)ccc1C(F)(F)F [Compound 1.212] | 3 | 7 | 8 | 7 | 8 |  |
| CC(C)=NOCCOc1nc(C(=O)C2=C(O)C(C)(C)C(=O)C(C)(C)C2=O)ccc1C(F)(F)F [Compound 2.010] | 3 | 8 | 9 | 8 | 9 |  |
| CCN(CC)c1nc(C(=O)C2=C(O)C(C)(C)C(=O)C(C)(C)C2=O)ccc1C(F)(F)F [Compound 2.060] | 9 | 10 | 10 | 9 | 10 |  |
| COCCNc1nc(C(=O)C2=C(O)C(C)(C)C(=O)C(C)(C)C2=O)ccc1C(F)(F)F [Compound 2.064] | 9 | 10 | 10 | 8 | 10 |  |
| CC1CN(c2nc(C(=O)C3=C(O)C(C)(C)C(=O)C(C)(C)C3=O)ccc2C(F)(F)F)CC(C)O1 (stereo not drawn) [Compound 2.075] | 7 | 9 | 10 | 6 | 10 |  |
| CN(C(=O)c1ccccc1)c1nc(C(=O)C2=C(O)C(C)(C)C(=O)C(C)(C)C2=O)ccc1C(F)(F)F [Compound 2.090] | 2 | 8 | 10 | 6 | 10 |  |
| Cc1cc(-c2nc(C(=O)C3=C(O)C(C)(C)C(=O)C(C)(C)C3=O)ccc2C(F)(F)F)on1 [Compound 2.202] | 6 | 10 | 10 | 6 | 10 |  |

Source: patent US20070167631A1, “Novel herbicides” (priority 2003, published 2007)
